Tests used:
Klebsiella pneumoniae [1] = experiment: Antibacterial activity against Klebsiella pneumoniae ATCC 13883 harboring SbmA assessed as reduction in microbial growth incubated for 20 to 22 hrs by CLSI based analysis; format: functional; conditions: time 20-22 hrs
Escherichia coli [2] = experiment: Antibacterial activity against wild type Escherichia coli ATCC 35218 assessed as reduction in microbial growth incubated for 20 to 22 hrs by CLSI based analysis; format: functional; conditions: time 20-22 hrs
[3] = Metabolic stability in mouse lung assessed as parent compound remaining measured after 4 hrs by UPLC-MS analysis; format: ADME, tissue-based; conditions: mouse lung, read-out: Stability
[4] = Metabolic stability in mouse lung assessed as parent compound remaining measured after 1 hrs by UPLC-MS analysis; format: ADME, tissue-based; conditions: mouse lung, read-out: Stability
Escherichia coli [5] = experiment: Antibacterial activity against Escherichia coli ATCC 35218 harboring SbmA assessed as reduction in microbial growth incubated for 20 to 22 hrs by CLSI based analysis; format: functional; conditions: time 20-22 hrs
Klebsiella pneumoniae [6] = experiment: Antibacterial activity against wild type Klebsiella pneumoniae ATCC 13883 assessed as reduction in microbial growth incubated for 20 to 22 hrs by CLSI based analysis; format: functional; conditions: time 20-22 hrs
[7] = Metabolic stability in mouse kidney assessed as parent compound remaining measured after 4 hrs by UPLC-MS analysis; format: ADME, tissue-based; conditions: read-out: Stability
[8] = Metabolic stability in mouse kidney assessed as parent compound remaining measured after 1 hrs by UPLC-MS analysis; format: ADME, tissue-based; conditions: read-out: Stability
Acinetobacter baumannii = experiment: Antibacterial activity against wild type Acinetobacter baumannii ATCC 19606 assessed as reduction in microbial growth incubated for 20 to 22 hrs by CLSI based analysis; format: functional; conditions: time 20-22 hrs
Escherichia coli [9] = experiment: Antibacterial activity against Escherichia coli ATCC 35218 assessed as reduction in microbial growth incubated for 20 to 22 hrs by CLSI based analysis; format: functional; conditions: time 20-22 hrs

MIC (Escherichia coli [9])	Structure (SMILES)	MIC (Klebsiella pneumoniae [1])	MIC (Escherichia coli [2])	remaining at 4 h [3]	remaining at 1 h [4]	MIC (Escherichia coli [5])	MIC (Klebsiella pneumoniae [6])	remaining at 4 h [7]	remaining at 1 h [8]	MIC (Acinetobacter baumannii)
–	CO[C@@H](CNC(=O)[C@H](NC(=O)[C@H](O)[C@H](C)O)[C@H](O)c1cncn1C)[C@H](O)[C@H](O)C(=O)N(C)[C@@H](Cc1ccc(F)cc1)C(=O)NCC(=O)N[C@H](C(=O)N[C@@H](CO)C(=O)N[C@H](C(=O)N[C@H](C(=O)N[C@@H](CCC(=O)NCc1cc(=O)c(O)cn1O)C(=O)NCCN)C(C)(C)C)C(C)(C)O)C(C)(C)O	> 32 µg/mL	0.01 µg/mL	75%	88%	4 µg/mL	0.12 µg/mL	41%	61%	1 µg/mL
–	CO[C@@H](CNC(=O)[C@H](NC(=O)[C@H](O)[C@H](C)O)[C@H](O)c1cncn1C)[C@H](O)[C@H](O)C(=O)N(C)[C@@H](Cc1ccc(F)cc1)C(=O)NCC(=O)N[C@H](C(=O)N[C@@H](CO)C(=O)N[C@H](C(=O)N[C@H](C(=O)N[C@@H](CO)C(=O)NCc1ccc(O)c(O)c1)C(C)(C)C)C(C)(C)O)C(C)(C)O	–	0.03 µg/mL	0%	0%	–	0.25 µg/mL	0%	6%	0.5 µg/mL
–	CC[C@H](C)[C@H](NC(=O)[C@@H](NC(=O)[C@H](CO)NC(=O)[C@@H](NC(=O)CNC(=O)[C@H](Cc1ccccc1)N(C)C(=O)[C@@H](O)[C@@H](O)[C@H](CNC(=O)[C@H](NC(=O)[C@H](O)[C@H](C)O)[C@H](O)c1cncn1C)OC)C(C)(C)O)C(C)(C)O)C(=O)N[C@@H](CO)C(=O)N[C@@H](CCC(=O)NCc1cc(=O)c(O)cn1O)C(=O)O	32 µg/mL	0.03 µg/mL	33%	73%	0.25 µg/mL	0.12 µg/mL	42%	84%	0.5 µg/mL
> 64 µg/mL	CO[C@@H](CNC(=O)[C@H](NC(=O)[C@H](O)[C@H](C)O)[C@H](O)c1cncn1C)[C@H](O)[C@H](O)C(=O)N(C)[C@@H](Cc1ccccc1)C(=O)NCC(=O)N[C@H](C(=O)N[C@@H](CO)C(=O)N[C@H](C(=O)O)C(C)(C)O)C(C)(C)O	–	–	–	–	–	–	–	–	–
–	CO[C@@H](CNC(=O)[C@H](NC(=O)[C@H](O)[C@H](C)O)[C@H](O)c1cncn1C)[C@H](O)[C@H](O)C(=O)N(C)[C@@H](Cc1ccc(F)cc1)C(=O)NCC(=O)N[C@H](C(=O)N[C@@H](CO)C(=O)N[C@H](C(=O)N[C@H](C(=O)N[C@@H](CO)C(=O)NCc1cccc(O)c1O)C(C)(C)C)C(C)(C)O)C(C)(C)O	–	0.06 µg/mL	0%	0%	–	0.5 µg/mL	0%	11%	0.5 µg/mL
–	CO[C@@H](CNC(=O)[C@H](NC(=O)[C@H](O)[C@H](C)O)[C@H](O)c1cncn1C)[C@H](O)[C@H](O)C(=O)N(C)[C@@H](Cc1ccccc1)C(=O)NCC(=O)N[C@H](C(=O)N[C@@H](CO)C(=O)N[C@H](C(=O)N[C@H](C(=O)N[C@@H](CO)C(=O)NCc1cc(=O)c(O)cn1O)C(C)(C)C)C(C)(C)O)C(C)(C)O	> 32 µg/mL	< 0.01 µg/mL	73%	84%	0.5 µg/mL	0.03 µg/mL	84%	99%	0.5 µg/mL
> 64 µg/mL	CO[C@@H](CNC(=O)[C@H](NC(=O)[C@H](O)[C@H](C)O)[C@H](O)c1cncn1C)[C@H](O)[C@H](O)C(=O)N(C)[C@@H](Cc1ccccc1)C(=O)O	–	–	–	–	–	–	–	–	–
32 µg/mL	CO[C@@H](CNC(=O)[C@H](NC(=O)[C@H](O)[C@H](C)O)[C@H](O)c1cncn1C)[C@H](O)[C@H](O)C(=O)N(C)[C@@H](Cc1ccccc1)C(=O)NCC(=O)N[C@H](C(=O)N[C@@H](CO)C(=O)N[C@H](C(=O)N[C@@H](CC(C)C)C(=O)O)C(C)(C)O)C(C)(C)O	–	–	–	–	–	–	–	–	–
> 64 µg/mL	CO[C@@H](CNC(=O)[C@H](NC(=O)[C@H](O)[C@H](C)O)[C@H](O)c1cncn1C)[C@H](O)[C@H](O)C(=O)N(C)[C@@H](Cc1ccccc1)C(=O)NCC(=O)N[C@H](C(=O)N[C@@H](CO)C(=O)O)C(C)(C)O	–	–	–	–	–	–	–	–	–

From ChEMBL document CHEMBL5356971, “Optimization of the Antibacterial Spectrum and the Developability Profile of the Novel-Class Natural Product Corramycin” (J Med Chem, 2023)
